From PMC6696179, “Structural Optimization and Structure–Activity Relationship of 4-Thiazolidinone Derivatives as Novel Inhibitors of Human Dihydroorotate Dehydrogenase” (Molecules, 2019)
pIC50: −log10 of the molar value.

What was measured:
hDHODH = target: T1, hDHODH (Homo sapiens, UniProt Q02127); assay: hDHODH enzyme inhibition assay (DCIP/UQ0, dihydroorotate-initiated); format: biochemical; conditions: for inhibition at 10 µM: compound at 10 µM, 10 nM purified hDHODH; for pIC50: three independent tests, determined if inhibition at 10 μM was greater than 50%;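 as to all read-outs here: recombinant hDHODH (Met30–Arg396) in HEPES pH 8.0 buffer with KCl and Triton X-100, reaction started by 500 µM dihydroorotate, inhibition from rate with inhibitor relative to uninhibited rate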
T1 construct: The plasmid pET-19b–hDHODH (Met30-Arg396) was transformed; inferred from the pET-19b vector and from purification on a chelating column with imidazole elution) (N); made in house; host or cells: E. coli BL21 (DE3)
T1 sequence (Q02127 29-395 limits assumed): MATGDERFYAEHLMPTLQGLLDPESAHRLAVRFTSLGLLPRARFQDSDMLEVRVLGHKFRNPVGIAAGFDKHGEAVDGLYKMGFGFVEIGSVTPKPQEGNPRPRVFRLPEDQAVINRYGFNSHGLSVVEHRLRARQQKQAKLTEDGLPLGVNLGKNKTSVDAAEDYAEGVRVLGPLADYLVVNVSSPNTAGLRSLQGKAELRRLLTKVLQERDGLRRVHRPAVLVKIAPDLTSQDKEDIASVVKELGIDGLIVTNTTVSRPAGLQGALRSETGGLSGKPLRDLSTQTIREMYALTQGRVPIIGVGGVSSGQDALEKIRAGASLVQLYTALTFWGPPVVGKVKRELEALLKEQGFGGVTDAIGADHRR
Procedure: The purified hDHODH was diluted into a final concentration of 10 nM with the assay buffer contained 50 mM HEPES pH 8.0, 150 mM KCl, 0.1% Triton X-100. […] The dihydroorotate was added to a final concentration of 500 μM to initiate the reaction. […] Inhibition rate was calculated from (1-Vi/V0) × 100. For the determination of the IC50 values, eight to nine different concentrations were applied. Each inhibitor concentration point was tested in triplicate. IC50 values were calculated using the sigmoidal fitting option of the program Origin 8.0.

SMILES | inhibition at 10 µM (hDHODH) | pIC50 (hDHODH) | melting point | hDHODH inhibitory activity in words (hDHODH)
COC(=O)/C(C#N)=C1\SCC(=O)N1c1ccc(C(=O)NCc2ccccc2C(=O)O)cc1 [Compound 42, (Z)-2-((4-(2-(1-cyano-2-methoxy-2-oxoethylidene)-4-oxothiazolidin-3-yl)benzamido)methyl)-benzoic acid] | 36.8% | < 5.00 | 217.3 to 218.1 °C | –
COC(=O)/C(C#N)=C1\SCC(=O)N1c1ccc(C(=O)NCc2ccccc2)cc1 [Compound 39, Methyl (Z)-2-(3-(4-(benzylcarbamoyl)phenyl)-4-oxothiazolidin-2-ylidene)-2-cyanoacetate] | 39.9% | < 5.00 | 117.3 to 118.1 °C | inactive
COC(=O)/C(C#N)=C1\SCC(=O)N1c1ccc(C(=O)Nc2ccc(F)c(C#N)c2)cc1 [Compound 31, Methyl (Z)-2-cyano-2-(3-(4-((3-cyano-4-fluorophenyl)carbamoyl)phenyl)-4-oxothiazolidin-2-ylidene)acetate] | 53.6% | 5.07 | 264.2 to 265.1 °C | –
COC(=O)/C(C#N)=C1\SCC(=O)N1c1ccc(C(=O)Nc2ccc(F)cc2)cc1 [Compound 30, Methyl (Z)-2-cyano-2-(3-(4-((4-fluorophenyl)carbamoyl)phenyl)-4-oxothiazolidin-2-ylidene)acetate] | 71.3% | 5.52 | 231.7 to 232.5 °C | –
COC(=O)/C(C#N)=C1\SCC(=O)N1c1ccc(C(=O)Nc2ccccc2)cc1 [Compound 28, Methyl (Z)-2-cyano-2-(4-oxo-3-(4-(phenylcarbamoyl)phenyl)thiazolidin-2-ylidene)acetate] | 69% | 5.53 | 194.9 to 195.6 °C | –
COC(=O)/C(C#N)=C1\SCC(=O)N1c1cccc(Oc2ccccc2)c1 [Compound 23, Methyl (Z)-2-cyano-2-(4-oxo-3-(3-phenoxyphenyl)thiazolidin-2-ylidene)acetate] | 34.4% | < 5.00 | 183.4 to 184.3 °C | inactive
COC(=O)/C(C#N)=C1\SCC(=O)N1c1ccc(C(=O)Nc2ccc(OC)cc2)cc1 [Compound 36, Methyl (Z)-2-cyano-2-(3-(4-((4-methoxyphenyl)carbamoyl)phenyl)-4-oxothiazolidin-2-ylidene)acetate] | 55.4% | 5.30 | 268.9 to 269.7 °C | –
COC(=O)/C(C#N)=C1\SCC(=O)N1c1ccc(C(=O)NCc2cccc(C(=O)O)c2)cc1 [Compound 43, (Z)-3-((4-(2-(1-cyano-2-methoxy-2-oxoethylidene)-4-oxothiazolidin-3-yl)benzamido)methyl) benzoic acid] | 44% | < 5.00 | 205.7 to 206.6 °C | –
